Results: patent publication US20160310467A1, “ONDANSETRONE TO REVERSAL OF THE SOFT TISSUE ANESTHESIA” (priority 2015, published 2016)

Legend:
[1] = cited from earlier work
[2] = reversal of the local anesthesia effect by applying ondansetrone to the same soft tissue area; format: in vivo; details: ondansetrone applied to the same area where local anesthesia is applied; dose according to patient and to type and dosage of local anesthetic
Source text: Invention is about the reversal of the effect of the local anesthetic applied to the soft tissue, in a short time period by applying ondansetrone, which is a 5-hydroxytriptamine (5-HT3) antagonist, to the same area. And it is also about the removal of the problems encountered by local anesthesia.
Anesthesia implementations can be classified as local anesthesia, regional anesthesia and general anesthesia. Local anesthesia is the temporarily blockage of carrying the painful stimulations by nerve tracks. Only the surgery area is anesthetized with the local anesthesia. […] Local anesthesia effect can last from as few hours up to five hours. During that period, the problems that patient has to face because of being effected by local anesthesia are described in detail in the prior art section. The solution of these problems is reversal of the effect of the local anesthesia by the doctor in a short time after finishing the operation. Because of the effects of the local anesthetics can take hours to be removed by their selves. In the studies of mine about reversal of that local anesthesia effect, ondansetrone, which is a 5-hidroksitriptamin (5-HT3) antagonist, is implemented to the same area according to patient's situation (age, weight, sensitivity etc.) and to type and dosage of local anesthetic were local anesthesia is applied. […]

[3] = spinal anesthesia with bupivacaine; cited from earlier work

Row | Structure (SMILES) | regression of the sensorial block level ([1]; subarachnoid anesthesia by lidocaine) | effect on sensorial block level ([1]; subarachnoid anesthesia by ropivacaine) | reversal of the effect of the local anesthetic [2] | reversal of the sensorial block [3]
1 | Cc1nccn1CC1CCc2c(c3ccccc3n2C)C1=O (stereo not shown) [ondansetrone] | accelerates the regression of the sensorial block level | no effect in sensorial block level | antagonizes the effect of the local anesthetic in a short time (a few minutes) | 
2 | CN1C2CCCC1CC(NC(=O)c1nn(C)c3ccccc13)C2 (stereo not shown) [granisetron] |  |  |  | accelerates the reversal of the sensorial block
